target: T1, murine TLR7 (Mus musculus, UniProt P58681); assay: HEK-Blue mTLR7 NF-κB/AP-1-inducible SEAP reporter cell assay; assay type: cell-based; conditions: Figure 2; 10 µg/mL to 10 pg/ml, 24 hours, SEAP read as OD at 655 nm
T1 construct: host or cells: HEK293 (ATCC, CRL-1573), HEK-Blue mTLR7
T1 sequence (P58681 27-1050): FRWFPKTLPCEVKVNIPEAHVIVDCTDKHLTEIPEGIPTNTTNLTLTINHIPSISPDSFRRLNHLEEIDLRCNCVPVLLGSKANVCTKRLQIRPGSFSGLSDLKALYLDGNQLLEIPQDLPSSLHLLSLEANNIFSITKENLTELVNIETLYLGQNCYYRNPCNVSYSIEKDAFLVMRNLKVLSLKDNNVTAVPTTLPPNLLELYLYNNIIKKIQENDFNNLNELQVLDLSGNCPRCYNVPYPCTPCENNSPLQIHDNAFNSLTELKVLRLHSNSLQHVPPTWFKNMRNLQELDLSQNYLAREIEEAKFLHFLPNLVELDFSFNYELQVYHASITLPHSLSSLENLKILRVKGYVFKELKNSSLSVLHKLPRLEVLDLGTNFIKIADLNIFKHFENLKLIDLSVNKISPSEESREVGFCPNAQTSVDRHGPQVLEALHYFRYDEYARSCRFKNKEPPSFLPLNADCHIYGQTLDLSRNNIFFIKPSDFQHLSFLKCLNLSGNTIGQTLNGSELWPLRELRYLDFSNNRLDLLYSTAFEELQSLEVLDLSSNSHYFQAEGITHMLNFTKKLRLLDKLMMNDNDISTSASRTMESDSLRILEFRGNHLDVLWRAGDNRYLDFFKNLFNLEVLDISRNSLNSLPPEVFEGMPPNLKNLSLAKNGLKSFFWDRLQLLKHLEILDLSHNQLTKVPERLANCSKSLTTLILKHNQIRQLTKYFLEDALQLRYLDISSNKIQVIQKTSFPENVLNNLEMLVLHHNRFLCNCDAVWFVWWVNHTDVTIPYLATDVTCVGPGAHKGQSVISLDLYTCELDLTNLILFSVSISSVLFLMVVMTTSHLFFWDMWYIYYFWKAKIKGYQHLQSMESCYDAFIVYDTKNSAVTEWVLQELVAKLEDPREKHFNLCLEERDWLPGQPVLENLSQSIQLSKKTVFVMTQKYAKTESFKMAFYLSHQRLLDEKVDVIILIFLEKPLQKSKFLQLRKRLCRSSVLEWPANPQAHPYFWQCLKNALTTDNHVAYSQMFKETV
Excerpt: Assays for detecting TLR7, TLR8 or TLR2 activity are known in the art and include for example cell-based assays using respectively TLR7, TLR8 or TLR2 reporter cell lines (InvivoGen). The reporter cell lines are engineered HEK293 cells, a human embryonic kidney cell line (ATCC, CRL-1573) that stably express either murine TLR7 (HEK-Blue™ mTLR7) or human TLR7 (HEK-Blue™ hTLR7), human TLR8 (HEK-Blue™ hTLR8) or human TLR2 (HEK- Blue™ hTLR2) with an NF-κB-inducible secreted embryonic alkaline phosphatase (SEAP) as the reporter gene.
Cell-based assays were carried out using TLR7 and TLR2 reporter cell lines (InvivoGen). The reporter cell lines are engineered HEK293 cells, a human embryonic kidney cell line (ATCC, CRL-1573) that stably express either murine TLR7 (HEK-Blue™ mTLR7) or human TLR7 (HEK-Blue™ hTLR7) or human TLR2 (HEK- Blue™ hTLR2) with an NF-κB-inducible secreted embryonic alkaline phosphatase (SEAP) as the reporter gene. The SEAP reporter gene is under the control of the NF-κB and AP-1-inducible promoter, which, upon treatment with a corresponding TLR ligand and activation of NF-κB and AP-1, induces the production of SEAP. Detection of SEAP is measured following culturing cells in HEK-Blue™ Detection media (InvivoGen). HEK-Blue™ Detection contains a SEAP substrate that when hydrolysed by SEAP produces a colorimetric change allowing for detection of SEAP as the protein is secreted. […] These assays were carried out using RAW-Blue™ Cells (InvivoGen), derived from RAW 264.7 mouse leukemic monocyte macrophage cell line (ATCC, CRL 2278) stably overexpressing a NF-κB /AP-1 inducible SEAP reporter constructs.
To perform the assay, cells were seeded on 96 well microliter plates at 50,000 or 100,000 cells per well for HEK-Blue™ Cells and RAW-Blue™ Cells respectively, and cultured at 37 °C in the presence of the conjugated compounds The TLR7-TLR2 polyamine molecules were prepared as follows: First, stock solutions of the conjugated compounds of the invention were prepared in ethanol or water to a concentration of 10 mg/ml.
The working dilutions of the conjugated TLR7-TLR2 polyamine agonists made up in water or PBS were directly added to the reporter cell lines at a final concentration ranging from 10 µg/mL to 10 pg/ml and incubated at 37 °C for 24 hours. After 24 hours of incubation, the effect on reporter gene activity was determined by reading the OD at 655 nm using iMark™ Microplate Reader (BIO-RAD).

ability to activate mTLR7	Structure (SMILES)
activate mTLR7	CCCCCCCCCCCCCCCC(=O)OCC(CSC[C@H](N)C(=O)N[C@@H](CCC(=O)NCCCNCCCCNCCCN)C(=O)Nc1ccc(Cn2c(O)nc3c(N)nc(NCCCC)nc32)cc1)OC(=O)CCCCCCCCCCCCCCC (stereo partly drawn) [CL527, (6R,9S)-6,25-diamino-9-(4-((6-amino-2-(butylamino)-8-hydroxy-9H-purin-9-yl)methyl)phenylcarbamoyl)-7,12-dioxo-4-thia-8,13,17,22-tetraazapentacosane-1,2-diyl dipalmitate]
activate mTLR7	CCCCCCCCCCCCCCCC(=O)OCC(CSC[C@H](N)C(=O)N[C@@H](COC(=O)c1ccc(Cn2c(O)nc3c(N)nc(NCCCC)nc32)cc1)C(=O)NCCCNCCCCNCCCN)OC(=O)CCCCCCCCCCCCCCC (stereo partly drawn) [CL514, (6R,9S)-6,23-diamino-9-((4-((6-amino-2-(butylamino)-8-hydroxy-9H-purin-9-yl)methyl)benzoyloxy)methyl)-7,10-dioxo-4-thia-8,11,15,20-tetraazatricosane-1,2-diyl dipalmitate]

Further lines, the molecule ahead of its results:

Structure (SMILES)	ability to activate mTLR7
CCCCCCCCCCCCCCCC(=O)OCC(CSC[C@H](N)C(=O)NCCCC[C@H](NC(=O)CNC(=O)c1ccc(Cn2c(O)nc3c(N)nc(NCCCC)nc32)cc1)C(=O)NCCCNCCCCNCCCN)OC(=O)CCCCCCCCCCCCCCC (stereo partly drawn) [CL487, (6R,13S)-6,27-diamino-13-(2-(4-((6-amino-2-(butylamino)-8-hydroxy-9H-purin-9-yl)methyl)benzamido)acetamido)-7,14-dioxo-4-thia-8,15,19,24-tetraazaheptacosane-1,2-diyl dipalmitate]	activate mTLR7
CCCCCCCCCCCCCCCC(=O)OCC(CSC[C@H](N)C(=O)NCCCC[C@H](NC(=O)c1ccc(Cn2c(O)nc3c(N)nc(NCCCC)nc32)cc1)C(=O)NCCCNCCCCNCCCN)OC(=O)CCCCCCCCCCCCCCC (stereo partly drawn) [CL486, (6R,13S)-6,27-diamino-13-(4-((6-amino-2-(butylamino)-8-hydroxy-9H-purin-9-yl)methyl)benzamido)-7,14-dioxo-4-thia-8,15,19,24-tetraazaheptacosane-1,2-diyl dipalmitate]	activate mTLR7
CCCCCCCCCCCCCCCC(=O)OCC(CSC[C@H](N)C(=O)N[C@@H](CCCCNC(=O)CNC(=O)c1ccc(Cn2c(O)nc3c(N)nc(NCCCC)nc32)cc1)C(=O)NCCCNCCCCNCCCN)OC(=O)CCCCCCCCCCCCCCC (stereo partly drawn) [CL475, (6R,9S)-6,23-diamino-9-(4-(2-(4-((6-amino-2-(butylamino)-8-hydroxy-9H-purin-9-yl)methyl)benzamido)acetamido)butyl)-7,10-dioxo-4-thia-8,11,15,20-tetraazatrico sane-1,2-diyl dipalmitate]	activate mTLR7
CCCCCCCCCCCCCCCC(=O)OCC(CSC[C@H](N)C(=O)NCCCNCCCCNCCCNC(=O)CNC(=O)c1ccc(Cn2c(O)nc3c(N)nc(NCCCC)nc32)cc1)OC(=O)CCCCCCCCCCCCCCC (stereo partly drawn) [CL553, (20R)-20-amino-1-(4-((6-amino-2-(butylamino)-8-hydroxy-9H-purin-9-yl)methyl)phenyl)-1,4,19-trioxo-22-thia-2,5,9,14,18-pentaazapentacosane-24,25-diyl dipalmitate]	activate mTLR7

From patent EP2769738B1, “Conjugated TLR7 and/or TLR8 and TLR2 polycationic agonists” (Invivogen, priority 2013, dated 2014)
